{"source": "patent US10035799B2", "about": "“COMT inhibiting methods and compositions” (Lieber Institute for Brain Development, priority 2015, dated 2018)"}
{"molecular_target": "T1, catechol-O-methyltransferase (COMT) (Homo sapiens, UniProt P21964)", "T1 construct": "M51A variant) was expressed in HEK 293F cells", "T1 sequence (P21964 52-271 limits assumed)": "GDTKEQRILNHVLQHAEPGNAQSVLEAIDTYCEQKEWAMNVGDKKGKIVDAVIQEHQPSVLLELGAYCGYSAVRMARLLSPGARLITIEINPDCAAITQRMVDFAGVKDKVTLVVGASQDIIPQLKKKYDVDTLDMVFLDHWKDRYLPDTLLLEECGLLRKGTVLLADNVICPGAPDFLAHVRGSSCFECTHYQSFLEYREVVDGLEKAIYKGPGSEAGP", "assay": "COMT inhibition assay (HTRF, production of S-adenosyl homocysteine)", "assay_type": "biochemical", "details": "recombinant human COMT, HTRF SAH production; MB-COMT or S-COMT not stated for Table 1", "description": "The ability of compounds to inhibit the activity of catechol-O-methyltransferase (COMT) was determined by a homogenous time-resolved fluorescent (HTRF) assay (Lina et al, 2012; kit from CisBio, Codolet, France). This assay measures the production of S-adenosyl homocysteine (SAH) from the methyl donor S-adenosyl methionine. Recombinant human membrane bound COMT (MB-COMT; M51A variant) was expressed in HEK 293F cells using 293Fectin (Life Technologies, Gent, Belgium) and membranes prepared. The membranes were re-suspended in buffer (20 mM Tris/HCl pH 7; 10 mM glycerol; 2 mM MgCl2; 10 mM NaCl), aliquoted and stored at −80° C. Recombinant human soluble COMT(S-COMT), Va1158 variant and a hexa-His tag on the N-terminus, was purified using Ni-NTA chromatography, the His tag removed and stored in buffer as above.\nFor the human MB-COMT assay, membranes (62 ng/well) were incubated with SAM (20 μM final, CisBio) and dopamine (1.5 μM final; Sigma H8502, Diegem, Belgium) in the presence or absence of varying concentrations (typically 10 concentrations ranging from 10 μM to 0.1 nM) of compound for 40 min at 37° C. in 384-well microtitre plates (10 μl per well final volume). The reaction was terminated by the addition of acylation buffer and the amount of SAH produced determined according to manufacturer's instructions. Specific inhibition as that inhibited by a high concentration of tolcapone (10 μM; synthesised at UCB) and all experiments were validated using a control curve to tolcapone.\nThe human S-COMT assay was performed as above except that 0.15 ng enzyme/well was incubated with SAM (20 μM final) and dopamine (100 μM final) for 15 min at 37° C. and SAH production determined.\nHTRF readings were performed using a Perkin Elmer Envision and results expressed as concentration of SAH produced using a standard curve. Results were analysed using non-linear regression to the 4-parameter logistic equation and pIC50 (−log 10 concentration of drug which inhibits enzyme activity/SAH production by 50%) determined."}
{"smiles": "O=S(=O)(c1ccc(O)c2ncccc12)N1CCCC1c1ccncc1", "note": "(stereo not drawn) [Example 79, 5-[2-(4-pyridyl)pyrrolidin-1-yl]sulfonylquinolin-8-ol]", "Activity range (pIC50, COMT inhibition)": "++ (a pIC50 of from about great than 6 to 7)"}
{"smiles": "O=S(=O)(c1ccc(O)c2ncccc12)N1CCNCC1", "note": "[Example 104, 5-piperazin-1-ylsulfonylquinolin-8-ol]", "Activity range (pIC50, COMT inhibition)": "+ (a pIC50 of from about 4.5 to 6)"}
{"smiles": "O=S(=O)(c1ccc(O)c2ncccc12)N1CCCCC1", "note": "[Example 63, 5-(piperidin-1-yl)sulfonylquinolin-8-ol]", "Activity range (pIC50, COMT inhibition)": "+++ (a pIC50 of above about 7)"}
{"smiles": "O=S(=O)(c1ccc(O)c2ncccc12)C1CCN(Cc2ccc(F)cc2)CC1", "note": "[Example 35, 5-[[1-[(4-fluorophenyl)methyl]-4-piperidyl]sulfonyl]quinolin-8-ol]", "Activity range (pIC50, COMT inhibition)": "++ (a pIC50 of from about great than 6 to 7)"}
{"smiles": "O=S(=O)(c1cccc(Cl)c1)c1ccc(O)c2ncccc12", "note": "[Example 14, 5-(3-chlorophenyl)sulfonylquinolin-8-ol]", "Activity range (pIC50, COMT inhibition)": "+++ (a pIC50 of above about 7)"}
{"smiles": "O=S(=O)(c1ccc(O)c2ncccc12)N1C[C@@H](F)[C@H](F)C1", "note": "[Example 70, 5-[(3R,4R)-3,4-difluoropyrrolidin-1-yl]sulfonylquinolin-8-ol]", "Activity range (pIC50, COMT inhibition)": "+++ (a pIC50 of above about 7)"}
{"smiles": "C[C@H](c1ccccc1)N(C)S(=O)(=O)c1cc(Cl)c(O)c2ncccc12", "note": "[Example 117, 7-chloro-8-hydroxy-N-methyl-N-[(1R)-1-phenylethyl]quinoline-5-sulfonamide]", "Activity range (pIC50, COMT inhibition)": "++ (a pIC50 of from about great than 6 to 7)"}
{"smiles": "Cc1cccc(S(=O)(=O)c2ccc(O)c3ncccc23)c1", "note": "[Example 7, 5-(m-tolylsulfonyl)quinolin-8-ol]", "Activity range (pIC50, COMT inhibition)": "+++ (a pIC50 of above about 7)"}
{"smiles": "O=S(=O)(c1ccccn1)c1ccc(O)c2ncccc12", "note": "[Example 16, 5-(2-pyridylsulfonyl)quinolin-8-ol]", "Activity range (pIC50, COMT inhibition)": "+++ (a pIC50 of above about 7)"}
{"smiles": "Cc1cc(S(=O)(=O)N(C)[C@H](C)c2ccccc2)c2cccnc2c1O", "note": "[Example 115, 8-hydroxy-N,7-dimethyl-N-[(1R)-1-phenylethyl]quinoline-5-sulfonamide]", "Activity range (pIC50, COMT inhibition)": "++ (a pIC50 of from about great than 6 to 7)"}
{"smiles": "O=S(=O)(c1ccc(O)c2ncccc12)N1CCC(O)(c2ccccc2)CC1", "note": "[Example 83, 5-[(4-hydroxy-4-phenyl-1-piperidyl)sulfonyl]quinolin-8-ol]", "Activity range (pIC50, COMT inhibition)": "+++ (a pIC50 of above about 7)"}
{"smiles": "O=S(=O)(c1ccc(O)c2ncccc12)N1CCCC(c2ccccc2)C1", "note": "(stereo not drawn) [Example 102, 5-[(3-phenyl-1-piperidyl)sulfonyl]quinolin-8-ol]", "Activity range (pIC50, COMT inhibition)": "+++ (a pIC50 of above about 7)"}
{"smiles": "O=S(=O)(c1cccnc1)c1ccc(O)c2ncccc12", "note": "[Example 19, 5-(3-pyridylsulfonyl)quinolin-8-ol]", "Activity range (pIC50, COMT inhibition)": "++ (a pIC50 of from about great than 6 to 7)"}
{"smiles": "Cc1cc(S(=O)(=O)N2CCN(Cc3ccc(F)cc3)CC2)c2cccnc2c1O", "note": "[Example 114, 5-[4-[(4-fluorophenyl)methyl]piperazin-1-yl]sulfonyl-7-methyl-quinolin-8-ol]", "Activity range (pIC50, COMT inhibition)": "+ (a pIC50 of from about 4.5 to 6)"}
{"smiles": "O=S(=O)(c1ccc(O)c2ncccc12)N1CCN(c2ccc(C(F)(F)F)cc2)CC1", "note": "[Example 94, 5-[4-[4-(trifluoromethyl)phenyl]piperazin-1-yl]sulfonylquinolin-8-ol]", "Activity range (pIC50, COMT inhibition)": "++ (a pIC50 of from about great than 6 to 7)"}
{"smiles": "O=S(=O)(c1ccc(O)c2ncccc12)N1CCCC1C1CCCCC1", "note": "(stereo not drawn) [Example 76, 5-(2-cyclohexylpyrrolidin-1-yl)sulfonylquinolin-8-ol]", "Activity range (pIC50, COMT inhibition)": "+++ (a pIC50 of above about 7)"}
{"smiles": "CCN(Cc1ccncc1)S(=O)(=O)c1ccc(O)c2ncccc12", "note": "[Example 66, N-ethyl-8-hydroxy-N-(4-pyridylmethyl)quinoline-5-sulfonamide]", "Activity range (pIC50, COMT inhibition)": "++ (a pIC50 of from about great than 6 to 7)"}
{"smiles": "Cc1ccc(CCS(=O)(=O)c2ccc(O)c3ncccc23)cc1", "note": "[Example 29, 5-[2-(p-tolyl)ethylsulfonyl]quinolin-8-ol]", "Activity range (pIC50, COMT inhibition)": "+++ (a pIC50 of above about 7)"}
{"smiles": "O=S(=O)(c1ccc(O)c2ncccc12)N1CCN(c2cccc(Cl)c2Cl)CC1", "note": "[Example 97, 5-[4-(2,3-dichlorophenyl)piperazin-1-yl]sulfonylquinolin-8-ol]", "Activity range (pIC50, COMT inhibition)": "++ (a pIC50 of from about great than 6 to 7)"}
{"smiles": "O=S(=O)(c1ccc(O)c2ncccc12)N1CCCC1c1ccccc1C(F)(F)F", "note": "(stereo not drawn) [Example 81, 5-[2-[2-(trifluoromethyl)phenyl]pyrrolidin-1-yl]sulfonylquinolin-8-ol]", "Activity range (pIC50, COMT inhibition)": "++ (a pIC50 of from about great than 6 to 7)"}
{"smiles": "O=S(=O)(c1ccc(O)c2ncccc12)N1CCc2ccccc2C1", "note": "[Example 40, 5-(3,4-dihydro-1H-isoquinolin-2-ylsulfonyl)quinolin-8-ol]", "Activity range (pIC50, COMT inhibition)": "+++ (a pIC50 of above about 7)"}
{"smiles": "C[C@H]1CCCN1S(=O)(=O)c1cc(Cl)c(O)c2ncccc12", "note": "[Example 118, 7-chloro-5-[(2S)-2-methylpyrrolidin-1-yl]sulfonyl-quinolin-8-ol]", "Activity range (pIC50, COMT inhibition)": "++ (a pIC50 of from about great than 6 to 7)"}
{"smiles": "CC(C)C1CCCN1S(=O)(=O)c1ccc(O)c2ncccc12", "note": "(stereo not drawn) [Example 78, 5-(2-isopropylpyrrolidin-1-yl)sulfonylquinolin-8-ol]", "Activity range (pIC50, COMT inhibition)": "+++ (a pIC50 of above about 7)"}
{"smiles": "O=S(=O)(c1ccc(O)c2ncccc12)N1CCN(c2nsc3ccccc23)CC1", "note": "[Example 98, 5-[4-(1,2-benzothiazol-3-yl)piperazin-1-yl]sulfonylquinolin-8-ol]", "Activity range (pIC50, COMT inhibition)": "++ (a pIC50 of from about great than 6 to 7)"}
{"smiles": "O=S(=O)(c1ccc(O)c2ncccc12)C1CCN(Cc2cccc(Cl)c2Cl)CC1", "note": "[Example 38, 5-[[1-[(2,3-dichlorophenyl)methyl]-4-piperidyl]sulfonyl]quinolin-8-ol]", "Activity range (pIC50, COMT inhibition)": "++ (a pIC50 of from about great than 6 to 7)"}
{"smiles": "Cc1cnccc1S(=O)(=O)c1ccc(O)c2ncccc12", "note": "[Example 27, 5-[(3-methyl-4-pyridyl)sulfonyl]quinolin-8-ol]", "Activity range (pIC50, COMT inhibition)": "+++ (a pIC50 of above about 7)"}
{"smiles": "O=S(=O)(c1ccc(O)c2ncccc12)N1CCCC1", "note": "[Example 59, 5-pyrrolidin-1-ylsulfonylquinolin-8-ol]", "Activity range (pIC50, COMT inhibition)": "+++ (a pIC50 of above about 7)"}
{"smiles": "O=S(=O)(c1ccc(O)c2ncccc12)N1CCN(Cc2ccccc2)CC1", "note": "[Example 43, 5-(4-benzylpiperazin-1-yl)sulfonylquinolin-8-ol]", "Activity range (pIC50, COMT inhibition)": "+++ (a pIC50 of above about 7)"}
{"smiles": "O=S(=O)(c1ccc(O)c2ncccc12)N1CCN(C(c2ccc(F)cc2)c2ccc(F)cc2)CC1", "note": "[Example 95, 5-[4-[bis(4-fluorophenyl)methyl]piperazin-1-yl]sulfonylquinolin-8-ol]", "Activity range (pIC50, COMT inhibition)": "+ (a pIC50 of from about 4.5 to 6)"}
{"smiles": "O=S(=O)(c1ccc(O)c2ncccc12)N1CCCC1c1ccccn1", "note": "(stereo not drawn) [Example 80, 5-[2-(2-pyridyl)pyrrolidin-1-yl]sulfonylquinolin-8-ol]", "Activity range (pIC50, COMT inhibition)": "++ (a pIC50 of from about great than 6 to 7)"}
{"smiles": "O=S(=O)(c1cccc(-c2cccc3[nH]ncc23)c1)c1ccc(O)c2ncccc12", "note": "[Example 26, 5-[3-(1H-indazol-4-yl)phenyl]sulfonylquinolin-8-ol]", "Activity range (pIC50, COMT inhibition)": "+++ (a pIC50 of above about 7)"}
{"smiles": "Cc1cc(F)ccc1S(=O)(=O)c1ccc(O)c2ncccc12", "note": "[Example 20, 5-(4-fluoro-2-methyl-phenyl)sulfonylquinolin-8-ol]", "Activity range (pIC50, COMT inhibition)": "+++ (a pIC50 of above about 7)"}
{"smiles": "C[C@H](c1ccccc1)N(C)S(=O)(=O)c1cc(F)c(O)c2ncccc12", "note": "[Example 123, 7-fluoro-8-hydroxy-N-methyl-N-[(1R)-1-phenylethyl]quinoline-5-sulfonamide]", "Activity range (pIC50, COMT inhibition)": "+++ (a pIC50 of above about 7)"}
